# Measured values as given in US6346535B1, “Fungicidal mixtures” (American Cyanamid Company, priority 1999, dated 2002).
# Like-named read-outs stand apart in the source and are kept apart here.
# Key:
# Type in all cases: in vivo
# [1] = tested on: Pyrenophora teres on barley; test: Greenhouse trial, 4 day residual, Pyrenophora teres on barley; settings: Pyrenophora teres, 96 h, 4 day residual, read-out: Observed Efficacy; for pest or weed control at 0.4 ppm: dose rate 0.4 ppm; for pest or weed control at 2 ppm: dose rate 2 ppm; for pest or weed control at 10 ppm: dose rate 10 ppm; for pest or weed control at 50 ppm: dose rate 50 ppm
# [2] = tested on: Leptosphaeria nodorum on wheat; test: Greenhouse trial, 4 day residual, Leptosphaeria nodorum on wheat; settings: Parastagonospora nodorum, 96 h, compound alone, read-out: Observed Efficacy; for pest or weed control at 4 ppm: dose rate 4 ppm; for pest or weed control at 16 ppm: dose rate 16 ppm; for pest or weed control at 64 ppm: dose rate 64 ppm; for pest or weed control at 256 ppm: dose rate 256 ppm
# How it was run: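 Wheat at full primary-leaf expansion sprayed with aqueous formulated compounds or mixtures (technical material in 5% acetone/0.05% Tween 20) to near run-off or at 200 l/ha, inoculated 4 days later with spore suspension and held 1-2 days in a moist chamber. Percent diseased leaf area scored about 7 days post-inoculation, excluding leaf tips and bases; synergy judged by Colby formula.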
# [3] = tested on: Erysiphe cichoracearum on cucumbers; test: Greenhouse trial, 4 day residual, Erysiphe cichoracearum on cucumbers; settings: Golovinomyces cichoracearum, 96 h, read-out: Observed Efficacy; for pest or weed control at 0.4 ppm: dose rate 0.4 ppm; for pest or weed control at 2 ppm: dose rate 2 ppm; for pest or weed control at 10 ppm: dose rate 10 ppm; for pest or weed control at 50 ppm: dose rate 50 ppm
# How it was run: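 Cucumber plants were sprayed to near run-off with compounds or mixtures (5% acetone/0.05% Tween 20 aqueous). Four days later they were inoculated by dusting with Erysiphe cichoracearum conidia. Percent diseased leaf area was assessed about 7 days after inoculation, and efficacy and Colby synergy were calculated from it.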
# [4] = tested on: Blumeria graminis f. sp. tritici on wheat; test: Greenhouse trial, 2 day curative, Blumeria graminis f. sp. tritici on wheat; settings: Table XVII, compound alone
# Procedure: (§1) The trials are carried out under greenhouse (Examples 1 to 18) or field conditions (Example 19) in residual or curative applications. The fungicides are applied in single treatments, or in a combination comprising a benzophenone of formula I and a compound selected from (A) through (E) as defined above. The compounds are applied in form of an aqueous spray mix obtained from a concentrated formulation or the technical material.
# (§2) 1. Seed is planted in 6 cm diameter plastic pots and maintained in the greenhouse.
# (§3) 2. When the primary leaf is fully expanded (in the case of cereals) or several leaves are present (in the case of dicots), formulated test compounds are sprayed with a three nozzle overhead fungicide sprayer to near run-off. Alternatively, a single nozzle overhead track sprayer is used for application of the compounds to cereals at a rate of 200 liters/ha (l/ha). Plants are then allowed to air-dry.
# (§4) 3. Inoculation precedes treatment in the case of curative evaluations and follows treatment in case of residual evaluations. For inoculation of powdery mildew disease, plants are set up on greenhouse benches with bottom watering mats and inoculated by dusting them with conidia from infected plants. Between inoculation and treatment for curative evaluations and between treatment and inoculation for residual evaluations, plants are maintained in the greenhouse with bottom watering. For inoculation of non-powdery mildew diseases, an aqueous spore suspension of the pathogen is applied to the plant and the plants are kept 1-2 days in a moist infection chamber before being returned to the greenhouse where they are maintained by bottom watering.
# (§5) 4. Disease on the foliage as percent leaf area with disease symptoms/signs is evaluated about 7 days after inoculation. In the case of wheat, the tips and bases of the leaves are excluded from the evaluation. [formula]
# (§6) 1. Technical compounds are formulated in a solvent/surfactant system consisting of 5% acetone and 0.05% Tween 20 in deionized water. Compounds are dissolved in acetone prior to addition of the water; the Tween 20 can be added through either the acetone or the water. Dilutions are made using the solvent/surfactant system. Formulated compounds are prepared using deionized water.
# (§7) Assessments of the diseases took place at the indicated day after the application of the compounds. Per cent infected leaf area infected was evaluated. The efficacy of the compounds/compounds mixtures to control the diseases was calculated by using the formula given above under item 4: […]
# (§8) Synergy of a fungicide mixture was determined by comparing the actual (observed) fungicidal activity of the mixture to the expected fungicidal activity of the mixture as calculated using the COLBY formula given hereinabove.
# Fungicidal Efficacy of the Mixture of Different Benzophenones+Metconazole (2 Day Curative) Against Blumeria graminis f. sp. tritici on Wheat
# The tank mixes were obtained from technical material of the benzophenones BP-2 and BP-4 and metconazole.
# [5] = tested on: Puccinia recondita on wheat; test: Greenhouse trial, 4 day residual, Puccinia recondita on wheat; settings: Puccinia recondita, 96 h, read-out: Observed Efficacy; for pest or weed control at 4 ppm: dose rate 4 ppm; for pest or weed control at 16 ppm: dose rate 16 ppm; for pest or weed control at 64 ppm: dose rate 64 ppm; for pest or weed control at 256 ppm: dose rate 256 ppm; for pest or weed control at 0.4 ppm: dose rate 0.4 ppm; for pest or weed control at 2 ppm: dose rate 2 ppm; for pest or weed control at 10 ppm: dose rate 10 ppm; for pest or weed control at 50 ppm: dose rate 50 ppm
# How it was run: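 Wheat plants sprayed at primary-leaf stage with compounds, alone or in mixtures, in 5% acetone/0.05% Tween 20 water, then inoculated 4 days later with Puccinia recondita spore suspension and held 1-2 days in a moist chamber. Percent diseased leaf area scored about 7 days post-inoculation, excluding leaf tips and bases; efficacy calculated, synergy by Colby.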
# [6] = tested on: Uncinula necator on vines; test: Greenhouse trial, 1 day residual, Uncinula necator on vines; settings: Table XVIII, compound alone
# Procedure: as §1, §2, §3, §4, §5, §6, §7, §8
# Fungicidal Efficacy of the Mixture of BP-4+AP-4 (1 Day Residual) Against Uncinula necator on Vines
# The tank mixes were obtained from technical material of BP-4 and AP-4. The active ingredients, the type of formulations, the observed and expected efficacies with different rates are given in Table XVIII: […]
# [7] = Table XIV (Example 14), 4 day residual
# [8] = Table XV (Example 15), 4 day residual
compound,measurement,setting,value
"COc1cc(C)c(C(=O)c2c(OC)ccc(Br)c2C)c(OC)c1OC [BP-4, 5-bromo-2′,6-dimethyl-2,4′,5′,6′-tetramethoxybenzophenone]",pest or weed control at 0.4 ppm,[1]; Table XIII (Example 13),0%
same,pest or weed control at 2 ppm,[1]; Table XIII (Example 13),0%
same,pest or weed control at 10 ppm,[1]; Table XIII (Example 13),34%
same,pest or weed control at 50 ppm,[1]; Table XIII (Example 13),58%
same,pest or weed control at 0.4 ppm,[1]; Table XVI (Example 16),0%
same,pest or weed control at 2 ppm,[1]; Table XVI (Example 16),0%
same,pest or weed control at 10 ppm,[1]; Table XVI (Example 16),0%
same,pest or weed control at 50 ppm,[1]; Table XVI (Example 16),11%
same,pest or weed control at 4 ppm,[2]; Table VIII,0%
same,pest or weed control at 16 ppm,[2]; Table VIII,0%
same,pest or weed control at 64 ppm,[2]; Table VIII,14%
same,pest or weed control at 256 ppm,[2]; Table VIII,34%
same,pest or weed control at 4 ppm,[2]; Table X,0%
same,pest or weed control at 16 ppm,[2]; Table X,10%
same,pest or weed control at 64 ppm,[2]; Table X,18%
same,pest or weed control at 256 ppm,[2]; Table X,44%
same,pest or weed control at 1 ppm,"[3]; Table VI, compound alone, dose rate 1 ppm",1%
same,pest or weed control at 4 ppm,"[3]; Table VI, compound alone, dose rate 4 ppm",6%
same,pest or weed control at 16 ppm,"[3]; Table VI, compound alone, dose rate 16 ppm",51%
same,pest or weed control at 64 ppm,"[3]; Table VI, compound alone, dose rate 64 ppm",100%
same,pest or weed control at 0.4 ppm,"[3]; Table XI, compound alone",0%
same,pest or weed control at 2 ppm,"[3]; Table XI, compound alone",2%
same,pest or weed control at 10 ppm,"[3]; Table XI, compound alone",55%
same,pest or weed control at 50 ppm,"[3]; Table XI, compound alone",96%
same,pest or weed control at 0.4 ppm,[3]; [7],0%
same,pest or weed control at 2 ppm,[3]; [7],0%
same,pest or weed control at 10 ppm,[3]; [7],13%
same,pest or weed control at 50 ppm,[3]; [7],97%
same,Observed Efficacy,[4]; dose rate 0.67 ppm,9%
same,Observed Efficacy,[4]; dose rate 2 ppm,27%
same,Observed Efficacy,[4]; dose rate 6 ppm,42%
same,Observed Efficacy,[4]; dose rate 18 ppm,78%
same,Observed Efficacy,[4]; dose rate 54 ppm,92%
same,pest or weed control at 4 ppm,"[5]; Table IX, compound alone",6%
same,pest or weed control at 16 ppm,"[5]; Table IX, compound alone",4%
same,pest or weed control at 64 ppm,"[5]; Table IX, compound alone",16%
same,pest or weed control at 256 ppm,"[5]; Table IX, compound alone",38%
same,pest or weed control at 4 ppm,"[5]; Table VII, compound alone",0%
same,pest or weed control at 16 ppm,"[5]; Table VII, compound alone",0%
same,pest or weed control at 64 ppm,"[5]; Table VII, compound alone",0%
same,pest or weed control at 256 ppm,"[5]; Table VII, compound alone",13%
same,pest or weed control at 0.4 ppm,"[5]; Table XII, compound alone",2%
same,pest or weed control at 2 ppm,"[5]; Table XII, compound alone",7%
same,pest or weed control at 10 ppm,"[5]; Table XII, compound alone",10%
same,pest or weed control at 50 ppm,"[5]; Table XII, compound alone",31%
same,pest or weed control at 0.4 ppm,[5]; [8],0%
same,pest or weed control at 2 ppm,[5]; [8],0%
same,pest or weed control at 10 ppm,[5]; [8],6%
same,pest or weed control at 50 ppm,[5]; [8],12%
same,Observed Efficacy,[6]; dose rate 0.25 ppm,0%
same,Observed Efficacy,[6]; dose rate 0.5 ppm,21%
same,Observed Efficacy,[6]; dose rate 1 ppm,28%
same,Observed Efficacy,[6]; dose rate 2 ppm,9%
same,Observed Efficacy,[6]; dose rate 4 ppm,43%
same,Observed Efficacy,[6]; dose rate 8 ppm,42%
